Results taken from ChEMBL document CHEMBL3885881, “DrugMatrix”.

Species on record: Rattus norvegicus
Experiment: DrugMatrix - Regimen: Daily Repeat
Format: toxicity, organism-based, Sprague-Dawley
Parameters: regimen Daily Repeat, gender Male, age 6-8 weeks
Conditions: in vivo, po, route oral GAVAGE, vehicle 100 % WATER; for ABSOLUTE BASOPHIL / ABSOLUTE EOSINOPHIL / ABSOLUTE LYMPHOCYTE / ABSOLUTE MONOCYTE / ABSOLUTE SEGMENTED NEUTROPHIL / BASOPHIL / EOSINOPHIL / ERYTHROCYTE COUNT / HEMATOCRIT / HEMOGLOBIN / LEUKOCYTE COUNT / LYMPHOCYTE / MEAN CORPUSCULAR HEMOGLOBIN / MEAN CORPUSCULAR HEMOGLOBIN CONCENTRATION / MEAN CORPUSCULAR VOLUME / MONOCYTE / NEUTROPHIL / NUCLEATED RED BLOOD CELLS / PLATELET COUNT: tissue Blood; for ALANINE AMINOTRANSFERASE / ALBUMIN / ALKALINE PHOSPHATASE / ASPARTATE AMINOTRANSFERASE / BLOOD UREA NITROGEN / CARBON DIOXIDE / CHLORIDE / CHOLESTEROL / CREATINE PHOSPHOKINASE / CREATININE / GLUCOSE / LACTATE DEHYDROGENASE / LIPASE / PHOSPHORUS / POTASSIUM / SODIUM / TOTAL BILIRUBIN / TOTAL PROTEIN / URIC ACID: tissue Plasma
[1] = 15 mg/kg, 120 h, dose level Low, time 5 day
[2] = 79 mg/kg, 72 h, dose level High, time 3 day
[3] = 79 mg/kg, 120 h, dose level High, time 5 day

Structure (SMILES): NNC(=O)c1ccncc1 [ISONIAZID]
- ABSOLUTE BASOPHIL [1]: 0 CELLS/uL
- ABSOLUTE EOSINOPHIL [1]: 0 CELLS/uL
- ABSOLUTE LYMPHOCYTE [1]: 13245.33 CELLS/uL
- ABSOLUTE MONOCYTE [1]: 507 CELLS/uL
- ABSOLUTE SEGMENTED NEUTROPHIL [1]: 1614.33 CELLS/uL
- BASOPHIL [1]: 0%
- EOSINOPHIL [1]: 0%
- ERYTHROCYTE COUNT [1]: 5.42 x10E6/uL
- HEMATOCRIT [1]: 33.8%
- HEMOGLOBIN [1]: 12.8 G/DL
- LEUKOCYTE COUNT [1]: 15.37 x10E3/uL
- LYMPHOCYTE [1]: 85%
- MEAN CORPUSCULAR HEMOGLOBIN [1]: 23.67 pg
- MEAN CORPUSCULAR HEMOGLOBIN CONCENTRATION [1]: 37.9 G/DL
- MEAN CORPUSCULAR VOLUME [1]: 62.47 fL
- MONOCYTE [1]: 3.33%
- NEUTROPHIL [1]: 11.67%
- NUCLEATED RED BLOOD CELLS [1]: 0 /100WBC
- PLATELET COUNT [1]: 1239.67 x10E3/uL
- ALANINE AMINOTRANSFERASE [1]: 47 u/L
- ALBUMIN [1]: 4.33 G/DL
- ALKALINE PHOSPHATASE [1]: 384.67 u/L
- ASPARTATE AMINOTRANSFERASE [1]: 85 u/L
- BLOOD UREA NITROGEN [1]: 16.67 mg/dL
- CARBON DIOXIDE [1]: 23.67 mmol/L
- CHLORIDE [1]: 102.67 MEQ/L
- CHOLESTEROL [1]: 76 mg/dL
- CREATINE PHOSPHOKINASE [1]: 246.67 u/L
- CREATININE [1]: 0.47 mg/dL
- GLUCOSE [1]: 188.33 mg/dL
- LACTATE DEHYDROGENASE [1]: 93.67 u/L
- LIPASE [1]: 11 u/L
- PHOSPHORUS [1]: 11.47 mg/dL
- POTASSIUM [1]: 5.97 MEQ/L
- SODIUM [1]: 146 MEQ/L
- TOTAL BILIRUBIN [1]: 0.23 mg/dL
- TOTAL PROTEIN [1]: 6.3 G/DL
- URIC ACID [1]: 2.17 mg/dL
- ABSOLUTE BASOPHIL [2]: 0 CELLS/uL
- ABSOLUTE EOSINOPHIL [2]: 46.33 CELLS/uL
- ABSOLUTE LYMPHOCYTE [2]: 10642.67 CELLS/uL
- ABSOLUTE MONOCYTE [2]: 65.33 CELLS/uL
- ABSOLUTE SEGMENTED NEUTROPHIL [2]: 779 CELLS/uL
- BASOPHIL [2]: 0%
- EOSINOPHIL [2]: 0.33%
- ERYTHROCYTE COUNT [2]: 6 x10E6/uL
- HEMATOCRIT [2]: 38.67%
- HEMOGLOBIN [2]: 14.03 G/DL
- LEUKOCYTE COUNT [2]: 11.53 x10E3/uL
- LYMPHOCYTE [2]: 91.67%
- MEAN CORPUSCULAR HEMOGLOBIN [2]: 23.4 pg
- MEAN CORPUSCULAR HEMOGLOBIN CONCENTRATION [2]: 36.3 G/DL
- MEAN CORPUSCULAR VOLUME [2]: 64.47 fL
- MONOCYTE [2]: 0.67%
- NEUTROPHIL [2]: 7.33%
- NUCLEATED RED BLOOD CELLS [2]: 0 /100WBC
- PLATELET COUNT [2]: 1065.67 x10E3/uL
- ALANINE AMINOTRANSFERASE [2]: 19 u/L
- ALBUMIN [2]: 4.9 G/DL
- ALKALINE PHOSPHATASE [2]: 349 u/L
- ASPARTATE AMINOTRANSFERASE [2]: 74.33 u/L
- BLOOD UREA NITROGEN [2]: 22.67 mg/dL
- CARBON DIOXIDE [2]: 25.67 mmol/L
- CHLORIDE [2]: 101.67 MEQ/L
- CHOLESTEROL [2]: 80 mg/dL
- CREATINE PHOSPHOKINASE [2]: 463.67 u/L
- CREATININE [2]: 0.29 mg/dL
- GLUCOSE [2]: 227.33 mg/dL
- LACTATE DEHYDROGENASE [2]: 268 u/L
- LIPASE [2]: 9.67 u/L
- PHOSPHORUS [2]: 14.17 mg/dL
- POTASSIUM [2]: 7.15 MEQ/L
- SODIUM [2]: 146.23 MEQ/L
- TOTAL BILIRUBIN [2]: 0.13 mg/dL
- TOTAL PROTEIN [2]: 6.77 G/DL
- URIC ACID [2]: 3.97 mg/dL
- ABSOLUTE BASOPHIL [3]: 0 CELLS/uL
- ABSOLUTE EOSINOPHIL [3]: 53 CELLS/uL
- ABSOLUTE LYMPHOCYTE [3]: 13139.33 CELLS/uL
- ABSOLUTE MONOCYTE [3]: 527.33 CELLS/uL
- ABSOLUTE SEGMENTED NEUTROPHIL [3]: 647 CELLS/uL
- BASOPHIL [3]: 0%
- EOSINOPHIL [3]: 0.33%
- ERYTHROCYTE COUNT [3]: 5.87 x10E6/uL
- HEMATOCRIT [3]: 36.03%
- HEMOGLOBIN [3]: 13.4 G/DL
- LEUKOCYTE COUNT [3]: 14.37 x10E3/uL
- LYMPHOCYTE [3]: 91.67%
- MEAN CORPUSCULAR HEMOGLOBIN [3]: 22.8 pg
- MEAN CORPUSCULAR HEMOGLOBIN CONCENTRATION [3]: 37.17 G/DL
- MEAN CORPUSCULAR VOLUME [3]: 61.33 fL
- MONOCYTE [3]: 3.67%
- NEUTROPHIL [3]: 4.33%
- NUCLEATED RED BLOOD CELLS [3]: 0.33 /100WBC
- PLATELET COUNT [3]: 1389.67 x10E3/uL
- ALANINE AMINOTRANSFERASE [3]: 28 u/L
- ALBUMIN [3]: 4.37 G/DL
- ALKALINE PHOSPHATASE [3]: 359.67 u/L
- ASPARTATE AMINOTRANSFERASE [3]: 83.67 u/L
- BLOOD UREA NITROGEN [3]: 17 mg/dL
- CARBON DIOXIDE [3]: 24.67 mmol/L
- CHLORIDE [3]: 102.33 MEQ/L
- CHOLESTEROL [3]: 63.67 mg/dL
- CREATINE PHOSPHOKINASE [3]: 505 u/L
- CREATININE [3]: 0.21 mg/dL
- GLUCOSE [3]: 173 mg/dL
- LACTATE DEHYDROGENASE [3]: 177.33 u/L
- LIPASE [3]: 10.33 u/L
- PHOSPHORUS [3]: 12.07 mg/dL
- POTASSIUM [3]: 6.62 MEQ/L
- SODIUM [3]: 143.8 MEQ/L
- TOTAL BILIRUBIN [3]: 0.17 mg/dL
- TOTAL PROTEIN [3]: 6.3 G/DL
- URIC ACID [3]: 2.17 mg/dL
